Experimental data from patent US10189809B2, “SGC stimulators” (Ironwood Pharmaceuticals, Inc., priority 2010, dated 2019).
Like-named read-outs stand apart in the source and are kept apart here.

Legend:
Thoracic aortic rings = experiment: Alternative thoracic aortic rings assay (Example 19b; resting tension as 100% inhibition); design: species or system rat; conditions: Rattus norvegicus; for inhibition at 1 µM: read-out: Percent Relaxation at 1 μM; for inhibition at 3 µM: read-out: Percent Relaxation at 3 μM; for inhibition at 10 µM: read-out: Percent Relaxation at 10 μM; for EC50: read-out: Aortic Ring EC50
Method: Thoracic aortic rings were dissected from anesthetized (isoflurane) male Sprague-Dawley rats weighing 275-299 g. Tissues were immediately transferred to ice-cold Krebs-Henseleit solution, which had been aerated with 95% O2 and 5% CO2 for 30 minutes. Following removal of connective tissue, aortic sections were cut into 4 rings (˜2 mm each) and suspended on 2 L-shaped hooks, with one hook fixed at the bottom of the tissue bath (Schuler Organ Bath, Harvard Apparatus) and the other connected to a force transducer (F30 Force Transducer, Harvard Apparatus). Baths contained Krebs Henseleit solution (10 mL) heated to 37° C. and aerated with 95% O2 and 5% CO2. Rings were brought to an initial tension of 0.3-0.5 g and gradually raised to a resting tension of 1.0 g over 60 minutes. Rings were rinsed with Krebs Henseleit solution (heated to 37° C. and aerated with 95% O2 and 5% CO2) at 15 minute intervals until a stable baseline was obtained. Rings were considered to be stable after a resting tension of 1.0 g was maintained (for approximately 10 minutes) without need for adjustment. Rings were then contracted with 100 ng/mL phenylephrine by adding 100 uL of a 10 μg/mL phenylephrine stock solution. Tissues achieving a stable contraction were then treated in a cumulative, dose dependent manner with test compounds prepared in dimethylsulfoxide (DMSO). In some cases, tissues were rinsed three times over a 5 minute period with Krebs-Heinseleit's solution (heated to 37° C. and aerated with 95% O2 and 5% CO2), allowed to stabilize at baseline, and then used for characterization of other test articles or DMSO effects. All data were collected using the HSE-ACAD software provided by Harvard Apparatus. […] EC50 values were calculated from concentration-response curves generated with GraphPad Prism Software.

[1] = biological target: T1, soluble guanylate cyclase (sGC) (Homo sapiens (Human), UniProt Q02108+Q02153); experiment: sGC-HEK-cGMP assay run with SNP incubation (HEK WC assay); format: cell-based; conditions: for HEK WC Assay (fold increase at 30 μM in the presence of 10 μM SNP): compound at 30 μM; for Emax at 10 µM: read-out: HEK WC Assay (% Emax at 10 μM/with 10 uM SNP); for Emax at 30 µM: read-out: HEK WC Assay (% Emax at 30 μM/with 10 uM SNP); for EC50: in the presence of 10 uM SNP
Method: Human embryonic kidney cells (HEK293), endogenously expressing soluble guanylate cyclase (sGC), were used to evaluate the activity of test compounds. Compounds stimulating the sGC receptor should cause an increase in the intracellular concentration of cGMP. HEK 293 cells were seeded in Dulbecco's Modification of Eagle's Medium supplemented with fetal bovine serum (10% final) and L-glutamine (2 mM final) in a 200 μL volume at a density of 1×10^5 cells/well in a poly-D-lysine coated 96 well flat bottom plate and grown overnight at 37° C. Medium was aspirated and cells were washed with 1× Hank's Buffered Saline Salt Solution (200 μL). Cells were then incubated for 15 minutes at 37° C. with 0.5 mM 3-isobutyl-1-methylxanthine (200 μL). Test article and sodium nitroprusside were then added to the assay mixture (2 μL each) and incubated at 37° C. for 10 minutes. After the 10 minute incubation, the assay mixture was aspirated and 0.1M HCl (200 μL) was added to the cells. The plate was incubated at 4° C. for 30 minutes in the 0.1M HCl to stop the reaction and lysed the cells. The plates were then centrifuged at 1,200 g for 5 minutes at room temperature. Supernatants were collected and transferred to a new flat bottom 96 well plate for analysis. Vehicle controls were carried out using DMSO (1%). […] Samples were diluted with an equal volume of 1 M Ammonium Acetate (pH 7) to neutralize samples for better chromatography. […] EC50 values were calculated from concentration-response curves generated with GraphPad Prism Software.

[2] = biological target: T1, soluble guanylate cyclase (sGC); experiment: sGC-HEK-cGMP assay run in the absence of SNP (HEK WC assay); format: cell-based; conditions: compound at 30 μM, absence of SNP
Method: Human embryonic kidney cells (HEK293), endogenously expressing soluble guanylate cyclase (sGC), were used to evaluate the activity of test compounds. Compounds stimulating the sGC receptor should cause an increase in the intracellular concentration of cGMP. HEK 293 cells were seeded in Dulbecco's Modification of Eagle's Medium supplemented with fetal bovine serum (10% final) and L-glutamine (2 mM final) in a 200 μL volume at a density of 1×10^5 cells/well in a poly-D-lysine coated 96 well flat bottom plate and grown overnight at 37° C. Medium was aspirated and cells were washed with 1× Hank's Buffered Saline Salt Solution (200 μL). Cells were then incubated for 15 minutes at 37° C. with 0.5 mM 3-isobutyl-1-methylxanthine (200 μL). Test article was then added to the assay mixture (2 μL) and incubated at 37° C. for 10 minutes. After the 10 minute incubation, the assay mixture was aspirated and 0.1M HCl (200 μL) was added to the cells. The plate was incubated at 4° C. for 30 minutes in the 0.1M HCl to stop the reaction and lysed the cells. The plates were then centrifuged at 1,200 g for 5 minutes at room temperature. Supernatants were collected and transferred to a new flat bottom 96 well plate for analysis. Vehicle controls were carried out using DMSO (1%). A known sGC stimulator, BAY 41-2272, was used as the positive control. Samples were diluted with an equal volume of 1 M Ammonium Acetate (pH 7) to neutralize samples for better chromatography. A 2× cGMP standard curve was prepared in 0.1 M HCl and then diluted with an equal volume of 1 M Ammonium Acetate, with the following final concentrations in nM: 1024, 512, 256, 128, 64, 32, 16, 8, 4, 2, 1. cGMP concentrations were determined from each sample using the LC/MS conditions (Table 2 below) and calculated standard curve. EC50 values were calculated from concentration-response curves generated with GraphPad Prism Software.

[3] = read-out: HEK WC Assay (% Emax at 10 μM with 10 uM SNP)
[4] = read-out: HEK WC Assay (% Emax at 30 μM with 10 uM SNP)
[5] = read-out: HEK WC Assay (% Emax at 1 μM with 10 uM SNP)

T1 sequence (Q02153 whole entry): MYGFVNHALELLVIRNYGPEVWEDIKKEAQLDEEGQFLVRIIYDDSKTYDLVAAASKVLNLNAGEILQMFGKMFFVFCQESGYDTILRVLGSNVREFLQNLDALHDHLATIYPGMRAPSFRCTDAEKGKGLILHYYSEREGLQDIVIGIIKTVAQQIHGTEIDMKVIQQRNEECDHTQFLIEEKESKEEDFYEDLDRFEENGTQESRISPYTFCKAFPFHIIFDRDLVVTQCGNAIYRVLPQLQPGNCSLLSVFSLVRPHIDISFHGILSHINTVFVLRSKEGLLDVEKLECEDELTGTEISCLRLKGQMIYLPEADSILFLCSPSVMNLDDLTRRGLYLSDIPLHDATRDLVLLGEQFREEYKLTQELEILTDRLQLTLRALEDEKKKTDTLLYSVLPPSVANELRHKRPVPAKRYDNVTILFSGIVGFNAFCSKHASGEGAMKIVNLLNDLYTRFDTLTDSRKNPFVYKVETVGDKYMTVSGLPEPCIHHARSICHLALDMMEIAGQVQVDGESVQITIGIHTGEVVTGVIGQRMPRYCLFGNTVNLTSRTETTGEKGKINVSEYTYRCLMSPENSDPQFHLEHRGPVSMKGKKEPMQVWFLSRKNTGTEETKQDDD
T1 sequence (Q02108 whole entry): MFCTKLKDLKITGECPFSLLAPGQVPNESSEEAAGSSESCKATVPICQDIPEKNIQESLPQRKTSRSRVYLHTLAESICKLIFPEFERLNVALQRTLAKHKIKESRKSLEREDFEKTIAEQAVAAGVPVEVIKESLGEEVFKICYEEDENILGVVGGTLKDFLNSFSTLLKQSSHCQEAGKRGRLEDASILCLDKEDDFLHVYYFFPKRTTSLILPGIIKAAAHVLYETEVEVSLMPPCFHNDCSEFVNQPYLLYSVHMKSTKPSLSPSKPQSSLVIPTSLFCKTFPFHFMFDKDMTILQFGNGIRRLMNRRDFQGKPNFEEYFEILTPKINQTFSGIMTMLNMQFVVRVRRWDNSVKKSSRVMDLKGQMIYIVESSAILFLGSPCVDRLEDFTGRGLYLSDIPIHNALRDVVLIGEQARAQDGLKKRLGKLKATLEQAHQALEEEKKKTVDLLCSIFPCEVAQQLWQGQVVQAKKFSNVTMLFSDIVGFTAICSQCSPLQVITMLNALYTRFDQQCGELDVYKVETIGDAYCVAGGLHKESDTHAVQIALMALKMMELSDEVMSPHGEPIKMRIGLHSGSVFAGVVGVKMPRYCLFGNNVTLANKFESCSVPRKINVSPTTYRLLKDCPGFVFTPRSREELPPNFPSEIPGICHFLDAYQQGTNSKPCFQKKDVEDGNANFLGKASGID

HEK WC Assay (fold increase at 30 μM in the presence of 10 μM SNP) [1]	Emax [1, 3] [%]	Emax [1, 4] [%]	HEK WC Assay (fold increase at 30 μM in the absence of SNP) [2]	EC50 [1] [µM]	EC50 (Thoracic aortic rings; Table 10B) [µM]	SMILES	inhibition at 1 µM (Thoracic aortic rings; Table 10B) [%]	inhibition at 3 µM (Thoracic aortic rings; Table 10B) [%]	further results
E (E = 10 to <20 fold increase)	40 to 60	40 to 60	C (C = 2 to <5 fold increase)	< 20		Oc1ccnc(-c2cc(-c3ccon3)n(Cc3ccccc3F)n2)n1 [Compound I-160, 2-(1-(2-fluorobenzyl)-5-(isoxazol-3-yl)-1H-pyrazol-3-yl)pyrimidin-4-ol]			Emax [1, 5]: 10 to 20%
					< 2	Oc1nc(-c2cc(-c3ccon3)n(Cc3ccccc3F)n2)ncc1F [Compound I-161]	80 to 100	100 to 120	
G (G = 30 to <40 fold increase)	80 to 100	100 to 120	D (D = 5 to <10 fold increase)	< 20		Nc1nc(-c2cc(-c3ccon3)n(Cc3ccccc3F)n2)ncc1NC(=O)CCCCl [Compound I-167]			Emax [1, 5]: 60 to 80%
	60 to 80	60 to 80		< 20	< 2	Nc1nc(-c2cc(-c3ccon3)n(Cc3ccccc3F)n2)ncc1NC(=O)c1nccs1 [Compound I-189]	80 to 100	80 to 100	Emax [1, 5]: 60 to 80%
					< 2	Fc1ccccc1Cn1nc(-c2ncccn2)cc1-c1ccno1 [Compound I-305]	40 to 60	80 to 100	inhibition at 10 µM (Thoracic aortic rings; Table 10B): 100 to 120%

More lines, now with the values behind:

SMILES	HEK WC Assay (fold increase at 30 μM in the presence of 10 μM SNP) [1]	Emax [1, 3] [%]	Emax [1, 4] [%]	HEK WC Assay (fold increase at 30 μM in the absence of SNP) [2]	EC50 [1] [µM]	EC50 (Thoracic aortic rings; Table 10B) [µM]	inhibition at 1 µM (Thoracic aortic rings; Table 10B) [%]	inhibition at 3 µM (Thoracic aortic rings; Table 10B) [%]	further results
Nc1nc(-c2cc(-c3ccon3)n(Cc3ccccc3F)n2)ncc1F [Compound I-109]									inhibition at 1 µM (Thoracic aortic rings; Table 10A): 80 to 100%; inhibition at 3 µM (Thoracic aortic rings; Table 10A): 60 to 80%; inhibition at 10 µM (Thoracic aortic rings; Table 10A): 100 to 120%; EC50 (Thoracic aortic rings; Table 10A): < 2 µM
CCOC(=O)c1cnc(-c2cc(-c3ccon3)n(Cc3ccccc3F)n2)nc1NCc1ccc(OC)cc1 [Compound I-134]	B (B = 1 to <2 fold increase)	0 to 10	0 to 10	B (B = 1 to <2 fold increase)					Emax at 10 µM [1]: 20 to 40%; Emax at 30 µM [1]: 40 to 60%
COc1ccc(CNc2nc(-c3cc(-c4ccon4)n(Cc4ccccc4F)n3)ncc2C(C)(C)O)cc1 [Compound I-135]	D (D = 5 to <10 fold increase)	10 to 20	10 to 20	C (C = 2 to <5 fold increase)					Emax at 10 µM [1]: 0 to 10%; Emax at 30 µM [1]: 0 to 10%
CCOC(=O)c1cnc(-c2cc(-c3ccon3)n(Cc3ccccc3F)n2)nc1O [Compound I-138]									Emax at 10 µM [1]: 40 to 60%; Emax at 30 µM [1]: 40 to 60%; inhibition at 1 µM (Thoracic aortic rings; Table 10A): 20 to 40%; inhibition at 3 µM (Thoracic aortic rings; Table 10A): 40 to 60%; EC50 (Thoracic aortic rings; Table 10A): 2 to 4 µM
CCOC(=O)c1cnc(-c2cc(-c3ccon3)n(Cc3ccccc3F)n2)nc1Cl [Compound I-140]									Emax at 10 µM [1]: 60 to 80%; Emax at 30 µM [1]: 40 to 60%; inhibition at 1 µM (Thoracic aortic rings; Table 10A): 20 to 40%; inhibition at 3 µM (Thoracic aortic rings; Table 10A): 60 to 80%; inhibition at 10 µM (Thoracic aortic rings; Table 10A): 80 to 100%; EC50 (Thoracic aortic rings; Table 10A): < 2 µM
CC(=O)Nc1c(N)nc(-c2cc(-c3ccon3)n(Cc3ccccc3F)n2)nc1N [Compound I-141]	C (C = 2 to <5 fold increase)	0 to 10	0 to 10	B (B = 1 to <2 fold increase)					
CNc1cnc(-c2cc(-c3ccon3)n(Cc3ccccc3F)n2)nc1N [Compound I-143]	D (D = 5 to <10 fold increase)	40 to 60	40 to 60	C (C = 2 to <5 fold increase)	40 to 60				
Nc1nc(-c2cc(-c3ccon3)n(Cc3ccccc3F)n2)ncc1NC(=O)C1CC1 [Compound I-144]		100 to 120	60 to 80		< 20	< 2	80 to 100	100 to 120	
Nc1cnc(-c2cc(-c3ncco3)n(Cc3ccccc3F)n2)nc1N [Compound I-149]	D (D = 5 to <10 fold increase)	60 to 80	80 to 100	C (C = 2 to <5 fold increase)	20 to 40				
Nc1cc(O)nc(-c2cc(-c3ccon3)n(Cc3ccccc3F)n2)n1 [Compound I-154]	B (B = 1 to <2 fold increase)	0 to 10	10 to 20	B (B = 1 to <2 fold increase)					
O=C(Nc1cnc(-c2cc(-c3ncco3)n(Cc3ccccc3F)n2)nc1O)c1ccccc1 [Compound I-159]	D (D = 5 to <10 fold increase)	20 to 40	20 to 40	B (B = 1 to <2 fold increase)					
Oc1nc(-c2cc(-c3ccon3)n(Cc3ccccc3F)n2)ncc1-c1ccncc1 [Compound I-163]	E (E = 10 to <20 fold increase)	40 to 60	40 to 60	C (C = 2 to <5 fold increase)					
CC(C)(C)OC(=O)Nc1cnc(-c2cc(-c3ccon3)n(Cc3ccccc3F)n2)nc1O [Compound I-164]	E (E = 10 to <20 fold increase)	20 to 40	20 to 40	C (C = 2 to <5 fold increase)					
CC1(C(=O)Nc2cnc(-c3cc(-c4ccon4)n(Cc4ccccc4F)n3)nc2N)CC1(F)F (stereo not shown) [Compound I-245]		100 to 120	100 to 120		< 20	< 2	80 to 100	100 to 120	Emax [1, 5]: 80 to 100%; inhibition at 10 µM (Thoracic aortic rings; Table 10B): 100 to 120%
Cc1cnc(-c2cc(-c3ccon3)n(Cc3ccccc3F)n2)nc1N [Compound I-297]		40 to 60	80 to 100		< 20	< 2	20 to 40	60 to 80	
